The conditions of the series: pH 2.7.

Marks after values point to notes of the source that are not given here.

Turning to `Nc1cccc(CON=C(c2ccccc2)c2noc(=O)[nH]2)n1` (mixture of isomers) [Example 96], the LogP was 1.2 [a]. `Cc1cccc(C(=NOCc2cccc(N)n2)c2noc(=O)[nH]2)c1` (mixture of isomers) [Example 121]: the LogP is 1.47 [a]. `C#CCCOC(=O)Nc1cccc(CON=C(C(N)=NO)c2ccccc2)n1` (mixture of isomers) [Example V-1]: the LogP is 2.1 [a]. Consider `CC(C)(C)OC(=O)Nc1cccc(CON=C(C(N)=NO)c2ccccc2F)n1` (mixture of isomers) [Example V-5], for which the LogP was 2.68 [a].

In the case of `COc1cccc(C(=NOCc2cccc(N)n2)C(N)=NO)c1` (mixture of isomers) [Example V-6], the LogP was 0.58 [a].

Regarding `Cc1cccc(C(=NOCc2cccc(N)n2)C(N)=NO)c1` (mixture of isomers) [Example V-7], the LogP was 0.75 [a].

On to `CC(C)(C)OC(=O)Nc1cccc(CON=C(C(N)=NO)c2ccc(F)cc2)n1` (mixture of isomers) [Example V-8], for which the LogP was 2.68 [a]. `NC(=NO)C(=NOCc1cccc(N)n1)c1ccccc1` (mixture of isomers) [Example V-9]: the LogP is 0.39 [a]. Take `NC(=NO)C(=NOCc1csc(N)n1)c1ccccc1Cl` (mixture of isomers) [Example V-10]: the lipophilicity (LogP) was 0.73 [a]. Consider `CC(C)(C)OC(=O)Nc1cccc(CON=C(C(N)=NO)c2ccccc2)n1` (mixture of isomers) [Example V-11], for which the LogP was 2.54 [a].

For the compound `NC(=NO)C(=NOCc1cccc(N)n1)c1cccc(F)c1` (mixture of isomers) [Example V-12], the LogP was 0.56 [a]. For the compound `COc1ccc(C(=NOCc2cccc(NC(=O)OC(C)(C)C)n2)C(N)=NO)cc1` (mixture of isomers) [Example V-13], the lipophilicity (LogP) is 2.51 [a]. Consider `CC(C)(C)OC(=O)Nc1cccc(CON=C(C(N)=NO)c2ccccc2)n1` (mixture of isomers) [Example V-14], for which the LogP was 2.57 [a]. With `Cc1ccc(C(=NOCc2csc(N)n2)C(N)=NO)cc1` (mixture of isomers) [Example V-15], the LogP is 0.89 [a]. As for `CC(C)C1(C(=O)Nc2cccc(CO/N=C(/c3ccccc3)c3noc(=O)n3C)n2)CC1(Cl)Cl` (racemic) [Example 371], the LogP is 4.35 [a].

In the case of `Cc1ccc(/C(=N/OCc2csc(NC(=O)C3COc4ccccc4O3)n2)c2noc(=O)n2C)cc1` (racemic) [Example 392], the LogP is 3.9 [a].

Consider `CC#CCC(C)OC(=O)Nc1cccc(CO/N=C(/c2ccccc2)c2noc(=O)n2C)n1` (racemic) [compound 455], for which the LogP was 3.89 [a]. For the compound `CCCCC(CC)COC(=O)Nc1cccc(CO/N=C(/c2ccccc2)c2noc(=O)n2C)n1` (racemic) [compound 463], the LogP was 5.54 [a]. As for `Cn1c(/C(=N\OCc2cccc(NC(=O)OCC3COC(=O)O3)n2)c2ccccc2)noc1=O` (racemic) [compound 474], the LogP is 2.75 [a]. Turning to `CC(CC1CC1)OC(=O)Nc1cccc(CO/N=C(/c2ccccc2)c2noc(=O)n2C)n1` (racemic) [compound 475], the LogP is 4.32 [a]. On to `C=CCC(C)OC(=O)Nc1cccc(CO/N=C(/c2ccccc2)c2noc(=O)n2C)n1` (racemic) [compound 479], for which the LogP was 4.01 [a].

As for `C#CCCOC(=O)Nc1cccc(CO/N=C(/c2ccccc2)c2noc(=O)[nH]2)n1` [Example 22], the LogP was 3.09 [a]. To `Cn1c(/C(=N\OCc2csc(NC(=O)COc3ccccc3F)n2)c2ccccc2)noc1=O` [Example 28] belongs 3.51 [a]; to `COc1ccccc1OCC(=O)Nc1cccc(CO/N=C(/c2ccccc2)c2noc(=O)n2C)n1` [Example 31], 3.8 [a]. With `Cn1c(/C(=N\OCc2csc(NC(=O)COc3ccc(F)cc3)n2)c2ccccc2)noc1=O` [Example 38], the LogP is 3.53 [a]. Regarding `CCCCCOC(=O)Nc1nc(CO/N=C(/c2ccc(C)cc2)c2noc(=O)n2C)cs1` [Example 41], the LogP is 4.41 [a]. In the case of `CC(C)CCCOC(=O)Nc1cccc(CO/N=C(/c2ccccc2)c2noc(=O)n2C)n1` [Example 45], the LogP was 4.81 [a].

With `Cn1c(/C(=N\OCc2cccc(NC(=O)OCCc3cccc(Br)c3)n2)c2ccccc2)noc1=O` [Example 49], the LogP is 4.61 [a]. Regarding `CC(Cc1ccccc1)OC(=O)Nc1cccc(CO/N=C(/c2ccccc2)c2noc(=O)n2C)n1` (centres unmarked) [Example 60], the LogP is 4.49 [a]. For the compound `CC(Oc1cccc(Cl)c1)C(=O)Nc1cccc(CO/N=C(/c2ccccc2)c2noc(=O)n2C)n1` (centres unmarked) [Example 64], the LogP is 4.38 [a]. As to `Cn1c(/C(=N\OCc2cccc(NC(=O)COc3ccc(Br)cc3)n2)c2ccccc2)noc1=O` [Example 65], the lipophilicity (LogP) is 4.2 [a].

For the compound `Cn1c(/C(=N\OCc2cccc(NC(=O)COc3ccc(F)cc3)n2)c2ccccc2)noc1=O` [Example 66], the LogP is 3.73 [a].

Take `COc1cccc(OC(C)C(=O)Nc2cccc(CO/N=C(/c3ccccc3)c3noc(=O)n3C)n2)c1` (centres unmarked) [Example 69]: the LogP was 3.97 [a]. The same measure for `Cc1ccccc1OCC(=O)Nc1cccc(CO/N=C(/c2ccccc2)c2noc(=O)n2C)n1` [Example 76]: 4.17 [a]; for `Cn1c(/C(=N\OCc2csc(N)n2)c2ccccc2Cl)noc1=O` [Example 90]: 1.72 [a]. As for `Cn1c(/C(=N\OCc2cccc(NC(=O)COC3CCCC3)n2)c2ccccc2)noc1=O` [Example 94], the LogP was 4.04 [a]. Consider `Cn1c(/C(=N\OCc2cccc(NC(=O)OC(C)(C)C)n2)c2ccccc2F)noc1=O` [Example 97], for which the LogP was 3.92 [a]. As for `Cn1c(/C(=N\OCc2cccc(NC(=O)COc3cccc(Cl)c3)n2)c2ccccc2)noc1=O` [Example 105], the LogP is 4.1 [a].

`COc1ccccc1OC(C)C(=O)Nc1cccc(CO/N=C(/c2ccccc2)c2noc(=O)n2C)n1` (centres unmarked) [Example 115]: the LogP was 4.15 [a]. For `Cn1c(/C(=N\OCc2cccc(NC(=O)COc3ccccc3F)n2)c2ccccc2)noc1=O` [Example 125], the LogP was 3.76 [a]. Turning to `CC(OCc1ccccc1)C(=O)Nc1nc(CO/N=C(/c2ccccc2)c2noc(=O)n2C)cs1` (centres unmarked) [Example 126], the LogP is 3.85 [a].

Turning to `Cc1cccc(OC(C)C(=O)Nc2cccc(CO/N=C(/c3ccccc3)c3noc(=O)n3C)n2)c1` (centres unmarked) [Example 128], the LogP was 4.35 [a].

For `Nc1cccc(CON=C(c2cccc(F)c2)c2noc(=O)[nH]2)n1` [Example 129], the LogP was 1.35 [a]. `CC(C)(C)OC(=O)Nc1cccc(CO/N=C(/c2ccccc2)c2noc(=O)[nH]2)n1` [Example 135]: the LogP was 3.76 [a]. Turning to `COc1cccc(/C(=N/OCc2cccc(N(C(=O)OC(C)(C)C)C(=O)OC(C)(C)C)n2)c2noc(=O)n2C)c1` [Example 141], the LogP is 4.44 [a]. Take `COc1cccc(/C(=N/OCc2cccc(NC(=O)OC(C)CC(C)C)n2)c2noc(=O)n2C)c1` (centres unmarked) [Example 149]: the LogP was 4.72 [a]. In the case of `CCCCCOC(=O)Nc1nc(CO/N=C(/c2cccc(F)c2)c2noc(=O)n2C)cs1` [Example 150], the LogP is 4.19 [a].
